Entries after “also recorded” stand apart in the source; their conditions may differ.
How the values were obtained:
[1] = Plasma and brain metabolite levels by HPLC after a single i.p. cystamine injection (dose-response study); type: in vivo, C57BL/6 mice
Experimental: (§1) Young adult (9-week old, 25 g) male C57BL/6 mice were purchased from Charles River Laboratories (Montréal, QC, Canada). Animals were housed four per cage under standard conditions with free access to food and water, randomized and handled under the same conditions by one investigator. All experiments were performed in accordance with the Canadian Council on Animal Care and were approved by the Institutional Committee of the Centre Hospitalier de l'Université Laval (CHUL). Throughout the experiment, the health status of all mice included in the study was closely monitored. To clearly identify the active intermediate following cystamine injection, as well as to understand its systemic and cerebral metabolism, a single intraperitoneal (i.p.) injection of cystamine was administered to normal adult C57BL/6 male mice using three different doses: 10, 50, and 200 mg/kg, as determined in prior publications (Tremblay et al. 2006; Gibrat et al. 2010). These doses were ultimately compared with saline injections. Cystamine was dissolved in sterile saline (0.9%) and injected 1, 3, 12, 24 and 48 h before killing. Animals were sacrificed under deep anesthesia with ketamine/xylazine and perfused via intracardiac infusion with 0.1 M phosphate-buffered saline. After intracardiac perfusion, brains were collected, snap-frozen in 2-methyl-butane and then stored at −80° C. until cryostat dissection for HPLC analyses. A total of 200 mice were assigned to this study (n=10 per group).
HPLC coupled to fluorescence detection was used in cysteine and cysteamine quantification of both sets of experiments: the dose-response study and in situ cerebral perfusion (ISCP) procedures. Frontal cortex were homogenized in 200 μL of NaHCO3 and then centrifuged at 15 700 g (4° C.) for 20 min. Fifty μl of supernatant were directly derivatized with 30 μL of 4-fluoro-7-sulfamoylbenzo-furazan (ABD-F) reagent. The alkylation reaction was completed at 55° C. for 15 min and stopped with 4.9 μL HCl 12 N. After a 10-min centrifugation at 7500 g (4° C.), the supernatant were immediately injected into the chromatograph consisting of a Waters 717 plus autosampler automatic injector set at 4° C., a Waters 1525 binary pump equipped with an Atlantis dC18 ([…]; 3.9×150 mm) column, and a Waters 2487 Dual Absorbance detector (Waters limited, Lachine, QC, Canada). The excitation was set at 385 nm and emission at 515 nm. The mobile phase, which consisted in 2.5% methanol and 0.1 M ammonium acetate adjusted at pH 4.0, was delivered at 1 mL/min (Santa et al. 2006). Peaks were identified and quantified using Breeze software (Waters limited). HPLC quantifications were normalized to protein concentrations. Protein measurements were determined with a bicinchoninic acid protein assay kit (Pierce, Rockford, Ill., USA) as described by the manufacturer's protocol.
Taurine and hypotaurine were measured by HPLC coupled with UV detection. Supernatant from NaHCO3 brain (bregma 1.54 to −0.58 mm) extracts (see section above for details) were directly derivatized with the reagent dansyl chloride (Sigma-Aldrich, St. Louis, Mo., USA) based on modified published methods (Saller and Czupryna 1989; Calon et al. 1999). Briefly, 50 μL of dansyl chloride (1.2 mg/mL) and 50 μL of sample or standard solution were mixed and then incubated for 30 min at 90° C. After a 10-min centrifugation at 7500 g (4° C.), supernatants were immediately injected into the chromatograph described above. Absorbance was set at 337 nm and the sensitivity at 0.5 absorbance unit full scale. […] Results were obtained using the same method as described above.

[2] = parameters: species or system C57BL/6 mice; conditions: in vivo, ip, 200 mg/kg
Experimental: as §1, with “After intracardiac perfusion, brains were collected, snap-frozen in 2-methyl-butane and then stored at −80° C. until cryostat dissection for HPLC analyses. A total of 200 mice were assigned to this study (n=10 per group).” left out

[3] = single i.p. cystamine 10, 50 or 200 mg/kg
[4] = single i.p. cystamine 10, 50 or 200 mg/kg, 1-48 h

plasma cysteamine level ([1]; cystamine-treated mice, single i.p. dose): undetectable
brain cysteamine level ([1]; single i.p. cystamine 200 mg/kg, 1 h post-injection, vs saline): significant increase
brain hypotaurine level [1, 4]: no significant alteration
brain taurine level [1, 4]: no significant alteration
brain cysteamine level ([1]; single i.p. cystamine, all three doses (10, 50, 200 mg/kg), each time point): marked increased in brain cysteamine
plasma cysteine level ([1]; single i.p. cystamine, up to 200 mg/kg (data not shown)): did not affect
brain cysteine level ([1]; single i.p. cystamine, up to 200 mg/kg, all time points): did not affect; also recorded: stable
duration of hypothermia and somnolence signs ([2]; male, C57BL/6, mouse): approximately 2 h
SMILES: NCCSSCCN [cystamine, Cystamine]
brain cysteamine level ([1]; single i.p. cystamine 50 mg/kg, 1 h post-injection, vs saline): significant increases; also recorded: significantly increased
plasma hypotaurine level [1, 3]: remained under or close to the detection threshold
plasma taurine level [1, 3]: remained under or close to the detection threshold
brain cysteamine level ([1]; single i.p. cystamine (200 mg/kg per FIG. 7), 3 h post-injection, vs saline): remained significantly elevated; also recorded: significant increase
clinical signs ([2]; mouse): signs of hypothermia (shivering) and somnolence (closing of eyelids)

— patent US20140073694A1, “CYSTAMINE ANALOGUES FOR THE TREATMENT OF PARKINSON'S DISEASE” (UNIVERSITE LAVAL, priority 2011, published 2014)
